Numbers after ± are expanded uncertainties.
Legend:
[1] = for Normal melting temperature: DTA; for Triple point temperature: Crystal 2, DSC
[2] = Molar enthalpy of transition or fusion; conditions: DSC

**Q.** Which results are given for `CCCCCCCCCCCCCCCCCCCCO` [1-eicosanol]?
**A.** Normal melting temperature ([1]; Crystal): 63.8 ± 0.53 °C; Molar enthalpy of transition or fusion ([2]; Crystal): 71.2 ± 8.7 kJ/mol

**Q.** Which Normal melting temperature ([1]; Crystal 1) does the source give for `CCCCCCCCCCCCCCCCCCCCCCCC` [tetracosane] here?
**A.** Its Normal melting temperature is 48.06 ± 0.53 °C.

**Q.** What about the Triple point temperature [1] of the same compound?
**A.** The Triple point temperature was 319.35 ± 0.81 K.

**Q.** And the “Molar enthalpy of transition or fusion” value ([2]; Crystal 1)?
**A.** The value was 61 ± 7.4 kJ/mol.

**Q.** What about the “Molar enthalpy of transition or fusion” value ([2]; Crystal 2) of the same compound?
**A.** Its value is 33.8 ± 4.1 kJ/mol.

**Q.** Which Normal melting temperature ([1]; Crystal) does the source give for `c1ccc(-c2ccccc2)cc1` [biphenyl] here?
**A.** The Normal melting temperature was 68.0 ± 0.53 °C.

**Q.** And the “Molar enthalpy of transition or fusion” value ([2]; Crystal)?
**A.** The value was 19.5 ± 2.4 kJ/mol.

**Q.** With `CCCCCCCCCCCCCCCCCCCC` [eicosane] as the compound, how does the Normal melting temperature ([1]; Crystal) read?
**A.** Its Normal melting temperature is 35.03 ± 0.53 °C.

**Q.** And the “Molar enthalpy of transition or fusion” value ([2]; Crystal)?
**A.** Its value is 72.5 ± 8.8 kJ/mol.

**Q.** What does the source list for `CCCCCCCCCCCCCCCCCCO` [1-octadecanol]?
**A.** Normal melting temperature ([1]; Crystal 1): 56.2 ± 0.53 °C; Triple point temperature [1]: 319.35 ± 0.81 K; Molar enthalpy of transition or fusion ([2]; Crystal 1): 51.8 ± 6.3 kJ/mol; Molar enthalpy of transition or fusion ([2]; Crystal 2): 27.4 ± 3.3 kJ/mol
